How the values were obtained:
[1] = test system: laboratory mice, strain CD-1; assay: Open field test (locomotor activity, sedative effect); on Open Field Test No Evidence of Hyperlocomotion: key: −: the desired effect was not observed; −/+: the desired effect was insufficient; +: the desired effect was observed; on Sedative Effect The Rapid Onset of Sedation at a Dose of 100 mg/kg: key: −: the desired effect was not observed; −/+: the desired effect was insufficient; +: the desired effect was observed; assay type: in vivo; conditions: for pathway in open field: dose 10 and 100 mg/kg, vs intact mice; for locomotor activity over time: higher dose of 10 resp. 100 mg/kg; for Sedative Effect The Rapid Onset of Sedation at a Dose of 100 mg/kg / Open Field Test No Evidence of Hyperlocomotion: intraperitoneally; for Open Field Test No Evidence of Hyperlocomotion: 0.1-100 mg/kg; for hyperlocomotion in open field: lower doses (below 10 mg/kg)
Experimental: (§1) In the Experimental Part 1 were used adults (30-35 g) male laboratory mice, strain CD-1 from Velaz facility, Czech Republic. Mice were housed in plastic boxes with a 12-hour light cycle (lights on at 7:00 pm). Mice had free access to food and water.
(§2) Amphiphilic steroid compounds were dissolved in a solution of 3 g (2-hydroxypropyl)-β-cyclodextrin (CDX, Sigma-Aldrich) and 157 mg of citric acid ([…], Sigma-Aldrich) in 30 ml of distilled water, the pH was adjusted to 7.4 using sodium hydroxide (NaOH, Sigma-Aldrich). Thus there were prepared solutions of the four steroids for application rates of 0.1, 1, 10 and 100 mg/kg.
The efficacy of the studied compounds was compared to known NMDA antagonist is memantine (Sigma-Aldrich) at a dose of 5 mg/kg in rats, ketamine (Vétoquinol) at 10 mg/kg and dizocilpine (MK-801) (Sigma-Aldrich) at a dose of 0.3 mg/kg in mice. These three compounds were dissolved in saline (B Braun).
The substances at dose 0.1-100 mg/kg were administered before the test to mice intraperitoneally. As controls were used intact mice and mice that received CDX solution. Also, MK-801 (0.3 mg/kg) was used for comparison of effects of noncompetitive antagonist of NMDA receptors. From the experiment was evaluated overall track anywhere in the arena as an indicator of locomotor activity. In addition, it was judged a ten-minute segments track during each experiment. Based on these values, it was possible to determine the latency time of onset of action and changes in locomotor activity over time.
In this arrangement, the sedative effect of the studied compounds at the highest dose was evaluated. […] Over time was monitored locomotor activity and possible changes characterized by tremor, ataxia, restlessness, or sedation or general anesthesia (absence of response to stimuli, decreased muscle tone).

[2] = test system: laboratory mice, strain CD-1; assay: Elevated plus maze (anxiety); assay type: in vivo; conditions: vs saline and CDX controls
Experimental: as §1, §2
The elevated plus maze (EPM) experiment was used to determine the effect of compounds on anxiety of animals at a dose of 1 mg/kg. Two control groups of animals were used to which was applied physiological saline and CDX solution, respectively. A noncompetitive NMDA receptor antagonist—ketamine (10 mg/kg) was given to a comparative group. The compounds were administered to mice intraperitoneally 30 minutes before testing in the EPM.

[3] = 1 mg/kg i.p., 30 minutes before testing

Compound	pathway in open field [1]	locomotor activity over time [1]	Sedative Effect The Rapid Onset of Sedation at a Dose of 100 mg/kg [1]	number of entries into the open arms [2, 3]	total time spent in the open arms [2, 3]	number of entries into the open arms ([2]; 10 mg/kg)	total time spent in the open arms ([2]; 10 mg/kg)	signs of sleepiness and overall sedation ([1]; 10 resp. 100 mg/kg, between the 20th and 40th minute)	Open Field Test No Evidence of Hyperlocomotion [1]	hyperlocomotion in open field [1]
C[C@@]12CCCCC1[C@@H]1CC[C@@H]3C[C@H](OC(=O)[C@@H](N)CCC(=O)O)CC[C@]3(C)[C@H]1CC2 (stereo partly drawn) [Compound 106, (4S)-4-Amino-5-(((2R,4aS,4bS,6aS,10bS,12aR)-4a,6a-dimethyloctadekahydrochrysen-2-yl)oxy)-5-oxopentanoic acid]	significant reduction	significant decrease	−							
C[C@@]12CCC[C@H]1[C@@H]1CC[C@@H]3C[C@H](OC(=O)[C@@H](N)CCC(=O)O)CC[C@]3(C)[C@H]1CC2 [Compound 130, (4S)-4-Amino-5-(((3R,5R,8S,9S,10S,13S,14S)-10,13-dimethylhexadecahydro-1H-cyclopenta[a]phenanthren-3-yl)oxy)-5-oxopentanoic acid]	significant reduction	significant decrease	+	significantly increased	significantly increased	not significantly altered	significant increase	most pronounced	+	not (unlike groups with dizocilpine) observed hyperlocomotion
Pyridinium (3S,3aS,5bR,7aR,9R,11aS,11bS,13aR)-3,11a-dimethylhexadecahydro-1H,3H-naphtho[2′,1′:4,5]indeno[1,7a-c]furan-9-yl 9-sulfate [Compound 124]	significant reduction	significant decrease	−						+	not (unlike groups with dizocilpine) observed hyperlocomotion
